Data as given in patent US7582786B2, “Synthetic catalytic free radical scavengers useful as antioxidants for prevention and therapy of disease” (Eukarion Inc., priority 1996, dated 2009).
“Also recorded” adds a separate entry of the source.

Columns and labels:
Rats = test: Ischemia-reperfusion induced kidney damage in the rat; type: in vivo; details: 0.2 mg/kg single intravenous bolus at beginning of reperfusion
Experimental: Rats (“Untreated” and “C40” groups) were unilaterally nephrectomized. The remaining renal artery was clamped for 75 min then reperfused. Kidney function was assessed by determining creatinine levels in the blood. Where indicated, rats received C40 as a single intravenous bolus injection (0.2 mg/kg) at the beginning of the reperfusion period. Bilaterally nephrectomized rats, showing maximal creatinine levels in the absence of kidney function, died on day 2.

[1] = SOD activity, inhibition of cytochrome C reduction by xanthine plus xanthine oxidase (Example 1); type: biochemical
Experimental: The SOD activity of the compounds was determined by evaluating the inhibition of the reduction of cytochrome C produced by the oxygen free radical generating system, xanthine plus xanthine oxidase. Cytochrome C reduction is monitored spectrophotometrically at 550 nm according to the method described in Darr et al. (1987) Arch. Biochem. Biophys. 258: 351, incorporated herein by reference. The concentration of xanthine oxidase is adjusted such that it produces a rate of reduction of cytochrome C at 550 nm of 0.025 absorbance unit per minute. Under these conditions, the amount of SOD activity required to inhibit the rate of cytochrome C reduction by 50 percent (i.e., to a rate of 0.0125 absorbance unit per minute) is defined as one unit of activity. Salen-metal complexes are identified as antioxidants if they have at least 0.1 unit of activity at a concentration of 1 mM under these standard assay conditions.

Hippocampal slices = test: Lactic acid-induced lipid peroxidation in hippocampal slices; type: cell-based, rat; details: C7 50 μM, 30 mM lactate pH 5.0, 100 minutes
Experimental: Hippocampal slices (400 μm thick) were obtained from Sprague-Dawley rats (150-200 g) and collected in preoxygenated (95% O2/5% CO2) Krebs-Ringer phosphate medium (pH 7.4) containing NaCl 120 mM, KCl 5 mM, CaCl2 1.3 mM, MgCl2 1.2 mM, NaPhosphate 16 mM (pH 7.4) and glucose 10 mM. After 15 minutes preincubation in a water bath at 35° C. under agitation, the buffer was replaced with the same buffer (control) or a modified buffer (lactate buffer) containing NaCl 90 mM, KCl 5 mM, CaCl2 1.3 mM, MgCl2 1.2 mM, NaPhosphate 16 mM and lactic acid 30 mM (pH 5.0). […] After 100 minutes, slices were collected and homogenized in 0.9 ml of TCA 5%, whereas 0.35 ml of TCA 5% was added to 0.5 ml of the incubation medium. Lipid peroxidation was measured by adding 0.25 ml of a thiobarbituric acid reagent (TBAR) to 0.85 ml of the TCA extracts and incubating the mixture for 60 minutes at 85-93° C. Lipids were then extracted with 2×0.5 ml 1-butanol by vortexing for 10 seconds, then centrifuging at 2,000 rpm for 10 minutes. The absorbance of peroxidized lipids in the alcohol phase was measured in a spectrophotometer at 532 nm. Data were expressed as nmoles of malondialdehyde (MDA) using authentic MDA to establish a standard curve. Proteins were measured from an aliquot of the TCA extracts using the method of Bradford and the final results were calculated as nmoles MDA formed/mg protein.

[2] = test system: dopaminergic neurons in mouse striatum; test: 6-OHDA model of neuronal injury in mice (3H-mazindol binding in striatal homogenates); type: in vivo
Experimental: 6-OHDA in mice. Adult male CFW mice were anesthetized with ketamine and rumpun, and immobilized in a stereotaxic device. 6-OHDA, as the hydrobromide salt, was dissolved in normal saline with 1% ascorbate, and 50 μg was administered in lateral ventricle by means of a 10 μl Hamilton syringe. […] Animals were sacrificed 7 days later, and neuronal pathology was assessed by measuring ^3H-mazindol binding in striatal homogenates.

[3] = C7 inactivation in H2O2, HPLC; type: physicochemical; details: 100 μM C7, 1 mM H2O2, with 1 mM ABTS
Experimental: Where indicated, 1 mM ABTS was also present. Components were mixed and, after various incubations times, a 30 μl aliquot was injected onto the HPLC. The mixtures were chromatographed on an octadecyl-silica column using a mobile phase consisting of 60% methanol:40% 0.1 M Nacl and a flow rate of 1 ml/min. […] A third component, with a retention time of 4.8 min, was detectable under some conditions; its appearance and disappearance was monitored but it was not further analyzed. In this system, ABTS and its oxidized product had retention times of 3.4 and 3.1-min, respectively, well resolved from the peaks of interest. Absorbance spectra collected during each run allowed the identity of C7 and salicylaldehyde to be verified. All peaks were integrated based upon their absorbance at 240 nm. The results are expressed as the percentage of maximum peak area. […] For the two putative breakdown products, this is equivalent to the largest peak observed during the course of the ˜2000 sec incubation period.

mice = test: Mouse model for delayed hypersensitivity (oxazolone, ear edema); type: in vivo; details: topical, 2.5 micrograms C7 per ear
Experimental: Mice (“Presensitized” and “Presensitized+C7” groups) were presensitized with oxazolone on the abdomen. One group (“Not presensitized”) received only vehicle on the abdomen at this time. After 7 days, each mouse was challenged with the oxazolone hapten on one ear and given vehicle only on the opposite ear. […] The other two groups received an equivalent volume of 90% acetone. Twenty-four hr after challenge, mice were sacrificed and ear edema was assessed by determining the wet weight/dry weight ratio. (Wet weight was determined by weighing the freshly dissected ear and dry weight was determined after lyophilization to a constant weight.)
Mice (“Presensitized” and “Presensitized+C7” groups) were presensitized with oxazolone on the abdomen. One group (“Not presensitized”) received only vehicle on the abdomen at this time. After 7 days, each mouse were challenged with the oxazolone hapten on one ear and given vehicle only on the opposite ear. […] The other two groups received an equivalent volume of 90% acetone. Twenty-four hr after challenge, mice were sacrificed and ear edema was assessed by determining the wet weight/dry weight ratio. (Wet weight was determined by weighing the freshly dissected ear and dry weight was determined after lyophilization to a constant weight.)

[4] = test system: Rat hippocampal slices in culture; test: Beta-amyloid peptide-induced cytotoxicity in hippocampal slice cultures; type: cell-based; details: C7 25 μM
Experimental: Rat hippocampal slices in culture were incubated with the beta-amyloid peptide (1-42) at the indicated concentrations. Cell viability was assessed by two criteria: release of lactate dehydrogenase (L*H) into the culture medium and staining with propidium […] iodide (PI) which binds to exposed DNA.
Rat hippocampal slice cultures were incubated with the beta-amyloid peptide (1-42) at the indicated concentrations. Cell viability was assessed by two criteria: release of lactate dehydrogenase (L*H) into the culture medium and staining with propidium iod*de (PI) which binds to exposed DNA.

[5] = In vitro model for acidosis-induced mucosal injury
[6] = C7 4×66 mg/kg i.p., 6-OHDA 50 μg i.c.v.

Q: With COc1cccc2c1[O][Mn]([Cl])[O]c1c(cccc1OC)C=NCCN=C2 [Compound C40] as the compound, how does the “kidney damage, creatinine levels in the blood” value (Rats) read?
A: Its value is “protects against ischemia-reperfusion induced kidney damage”.

Q: For [Cl][Mn]1[O]c2ccccc2C=NCCN=Cc2ccccc2[O]1 [Compound C7], which “SOD Activity” value ([1]; Example 1, cytochrome C reduction) is on record?
A: The value was 575 units/mM.

Q: What about the SOD Activity ([1]; previously found) of the same compound?
A: The SOD Activity was “about 769 units/mM”.

Q: And the “lactate-induced increase in lipid peroxidation” value (Hippocampal slices)?
A: The value was “totally abolished; also recorded: protects”.

Q: And the “mazindol binding, contralateral striatum” value [2, 6]?
A: Its value is “complete protection”.

Q: And the “mazindol binding, ipsilateral striatum” value [2, 6]?
A: Its value is “significant reduction”.

Q: And the “crossing of the blood brain barrier” value ([2]; concluded from effects of peripheral injections in in vivo models)?
A: The value was “crosses the blood brain barrier”.

Q: And the “protection from 6-OHDA-induced degeneration” value ([2]; mouse, in vivo)?
A: The value was “protects dopaminergic neurons”.

Q: What about the “C7 peak disappeared rapidly” value [3] of the same compound?
A: The value was “about 20%”.

Q: What about the “C7 persisting for the ~2000 sec incubation” value [3] of the same compound?
A: The value was 80%.

Q: What about the “protection, ear edema” value (mice) of the same compound?
A: Its value is “protective”.

Q: And the “protection from beta-amyloid peptide-induced cytotoxicity” value [4]?
A: The value was “protect neurons; also recorded: protects neuronal tissue”.

Q: What about the “protection against acidosis-induced mucosal injury” value [5] of the same compound?
A: Its value is “protective”.
